Ki data for 32 compounds are collected here from US8653263B2 (Janssen Pharmaceutica, priority 2009, dated 2014).

Structures are written as SMILES.

For this assay, the target named is human orexin-2 receptor (Homo sapiens (Human), UniProt O43614). Briefly: Human orexin 2 receptor radioligand binding ([3H]-EMPA competition). As to conditions: HEK293 cells stably expressing human orexin-2 receptor; [3H]-EMPA 5 nM final; apparent Ki=IC50/(1+C/Kd), Kd=2 nM; read-out: OR 2 Ki.
Sequence of human orexin-2 receptor (O43614 whole entry): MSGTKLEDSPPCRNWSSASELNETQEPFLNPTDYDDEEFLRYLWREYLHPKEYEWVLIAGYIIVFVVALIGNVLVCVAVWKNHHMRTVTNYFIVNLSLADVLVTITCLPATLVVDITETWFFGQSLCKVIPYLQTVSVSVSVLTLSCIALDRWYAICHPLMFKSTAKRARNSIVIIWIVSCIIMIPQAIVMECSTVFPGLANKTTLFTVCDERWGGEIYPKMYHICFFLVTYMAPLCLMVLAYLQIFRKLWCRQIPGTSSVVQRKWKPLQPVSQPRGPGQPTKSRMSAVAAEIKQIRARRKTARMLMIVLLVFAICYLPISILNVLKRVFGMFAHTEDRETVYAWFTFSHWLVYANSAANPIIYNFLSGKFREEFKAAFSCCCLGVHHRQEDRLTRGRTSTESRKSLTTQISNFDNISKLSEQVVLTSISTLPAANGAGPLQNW
With `CCOc1ccc2ccccc2c1C(=O)N1CC2CN(c3nc(C)cc(C)n3)CC2C1` (centres unmarked) [Example 77, 2-(4,6-Dimethylpyrimidin-2-yl)-5-[(2-ethoxynaphthalen-1-yl)carbonyl]octahydro-pyrrolo[3,4-c]pyrrole], the Ki stood at 0.025 µM.
For `COc1cc(OC)nc(N2CC3CN(C(=O)c4ccccc4-n4cccn4)CC3C2)n1` (centres unmarked) [Example 78, 2-(4,6-Dimethoxypyrimidin-2-yl)-5-{[2-(1H-pyrazol-1-yl)phenyl]carbonyl}octahydro-pyrrolo[3,4-c]pyrrole] the value was 0.55 µM; for `Cc1cc(C)nc(N2CC3CN(C(=O)c4ncoc4-c4ccccc4)CC3C2)n1` (centres unmarked) [Example 79, 2-(4,6-Dimethylpyrimidin-2-yl)-5-[(5-phenyl-1,3-oxazol-4-yl)carbonyl]octahydro-pyrrolo[3,4-c]pyrrole], 0.48 µM; for `Cc1cc(C)nc(N2CC3CN(C(=O)c4cnoc4-c4ccccc4)CC3C2)n1` (centres unmarked) [Example 80, 2-(4,6-Dimethylpyrimidin-2-yl)-5-[(5-phenylisoxazol-4-yl)carbonyl]octahydro-pyrrolo[3,4-c]pyrrole], 0.314 µM.
With `Cc1cc(N2CC3CN(C(=O)c4ccccc4-n4nccn4)CC3C2)nc(C(C)C)n1` (centres unmarked) [Example 81, [5-(2-Isopropyl-6-methyl-pyrimidin-4-yl)-hexahydro-pyrrolo[3,4-c]pyrrol-2-yl]-(2-[1,2,3]triazol-2-yl-phenyl)-methanone] the figure was 1.22 µM.
Take `Cc1cc(C)nc(N2CC3CN(C(=O)c4ccccc4Br)CC3C2)n1` (centres unmarked) [Example 82, 2-[(2-Bromophenyl)carbonyl]-5-(4,6-dimethylpyrimidin-2-yl)octahydropyrrolo[3,4-c]pyrrole]: the Ki came to 0.379 µM.
For `COc1cc(OC)nc(N2CC3CN(C(=O)c4ccccc4-n4nccn4)CC3C2)n1` (centres unmarked) [Example 84, 2-(4,6-Dimethoxypyrimidin-2-yl)-5-{[2-(2H-1,2,3-triazol-2-yl)phenyl]carbonyl}octahydropyrrolo[3,4-c]pyrrole] the value was 0.053 µM; for `O=C(c1ccccc1-c1nnc[nH]1)N1CC2CN(c3cnc4ccccc4n3)CC2C1` (centres unmarked) [Example 85, 2-[5-{[2-(4H-1,2,4-Triazol-3-yl)phenyl]carbonyl}hexahydropyrrolo[3,4-c]pyrrol-2(1H)-yl]quinoxaline], 0.098 µM.
For `O=C(c1ccccc1-c1nnc[nH]1)N1CC2CN(c3nc4ccccc4o3)CC2C1` (centres unmarked) [Example 86, 2-[5-{[2-(4H-1,2,4-Triazol-3-yl)phenyl]carbonyl}hexahydropyrrolo[3,4-c]pyrrol-2(1H)-yl]-1,3-benzoxazole] the value was 0.256 µM; for `Cc1ccnc(N2CC3CN(C(=O)c4ccccc4-c4nnc[nH]4)CC3C2)n1` (centres unmarked) [Example 87, 2-(4-Methylpyrimidin-2-yl)-5-{[2-(4H-1,2,4-triazol-3-yl)phenyl]carbonyl}octahydro-pyrrolo[3,4-c]pyrrole], 0.509 µM.
With `CCOc1ccccc1C(=O)N1CC2CN(c3nc(C)cc(C)n3)CC2C1` (centres unmarked) [Example 88, 2-(4,6-Dimethylpyrimidin-2-yl)-5-[(2-ethoxyphenyl)carbonyl]octahydropyrrolo[3,4-c]pyrrole] the figure was 0.075 µM.
Consider `Cc1cc(C)nc(N2CC3CN(C(=O)c4ccc(F)cc4C(F)(F)F)CC3C2)n1` (centres unmarked) [Example 89, 2-(4,6-Dimethylpyrimidin-2-yl)-5-{[4-fluoro-2-(trifluoromethyl)phenyl]carbonyl}octahydropyrrolo[3,4-c]pyrrole], for which the Ki turned out to be 0.452 µM.
Take `Cc1cc(C)nc(N2CC3CN(C(=O)c4ccc(F)c5ccccc45)CC3C2)n1` (centres unmarked) [Example 90, 2-(4,6-Dimethylpyrimidin-2-yl)-5-[(4-fluoronaphthalen-1-yl)carbonyl]octahydro-pyrrolo[3,4-c]pyrrole]: the Ki was found to be 0.038 µM.
With `Cc1cc(C)nc(N2CC3CN(C(=O)c4ccccc4C(C)C)CC3C2)n1` (centres unmarked) [Example 91, 2-(4,6-Dimethylpyrimidin-2-yl)-5-{[2-(1-methylethyl)phenyl]carbonyl}octahydro-pyrrolo[3,4-c]pyrrole], the Ki stood at 0.541 µM.
Consider `COc1cccc(C(=O)N2CC3CN(c4nc(C)cc(C)n4)CC3C2)c1C` (centres unmarked) [Example 92, 2-(4,6-Dimethylpyrimidin-2-yl)-5-[(3-methoxy-2-methylphenyl)carbonyl]octahydro-pyrrolo[3,4-c]pyrrole], for which the Ki was found to be 0.766 µM.
For `Cc1cc(C)nc(N2CC3CN(C(=O)c4cccc5ccccc45)CC3C2)n1` (centres unmarked) [Example 93, 2-(4,6-Dimethylpyrimidin-2-yl)-5-(naphthalen-1-ylcarbonyl)octahydropyrrolo[3,4-c]pyrrole] the value was 0.064 µM; for `O=C(c1ccccc1-c1nnc[nH]1)N1CC2CN(c3nc4ccccc4nc3C(F)(F)F)CC2C1` (centres unmarked) [Example 94, 2-[5-{[2-(4H-1,2,4-Triazol-3-yl)phenyl]carbonyl}hexahydropyrrolo[3,4-c]pyrrol-2(1H)-yl]-3-(trifluoromethyl)quinoxaline], 0.551 µM.
For `Cc1nc2ccccc2nc1N1CC2CN(C(=O)c3ccccc3-c3nnc[nH]3)CC2C1` (centres unmarked) [Example 95, 2-Methyl-3-[5-{[2-(4H-1,2,4-triazol-3-yl)phenyl]carbonyl}hexahydropyrrolo[3,4-c]pyrrol-2(1H)-yl]quinoxaline] the value was 0.215 µM; for `Cc1cc(N2CC3CN(C(=O)c4ccccc4-c4nnc[nH]4)CC3C2)nc(C(F)(F)F)n1` (centres unmarked) [Example 96, 2-[6-Methyl-2-(trifluoromethyl)pyrimidin-4-yl]-5-{[2-(4H-1,2,4-triazol-3-yl)phenyl]carbonyl}octahydropyrrolo[3,4-c]pyrrole], 0.068 µM.
For `Cc1cc(N2CC3CN(C(=O)c4ccccc4-n4nccn4)CC3C2)nc(C(F)(F)F)n1` (centres unmarked) [Example 97, 2-[6-Methyl-2-(trifluoromethyl)pyrimidin-4-yl]-5-{[2-(2H-1,2,3-triazol-2-yl)phenyl]carbonyl}octahydropyrrolo[3,4-c]pyrrole], the Ki is 0.025 µM.
For `Cc1cc(N2CC3CN(C(=O)c4c(F)cccc4-n4nccn4)CC3C2)nc(C(F)(F)F)n1` (centres unmarked) [Example 98, 2-{[2-Fluoro-6-(2H-1,2,3-triazol-2-yl)phenyl]carbonyl}-5-[6-methyl-2-(trifluoromethyl)pyrimidin-4-yl]octahydropyrrolo[3,4-c]pyrrole] the value was 0.028 µM; for `Cc1cc(N2CC3CN(C(=O)c4ccc(F)cc4-n4nccn4)CC3C2)nc(C(F)(F)F)n1` (centres unmarked) [Example 99, 2-{[4-Fluoro-2-(2H-1,2,3-triazol-2-yl)phenyl]carbonyl}-5-[6-methyl-2-(trifluoromethyl)pyrimidin-4-yl]octahydropyrrolo[3,4-c]pyrrole], 0.015 µM.
With `Cc1ccc(-n2nccn2)c(C(=O)N2CC3CN(c4cncc(C)n4)CC3C2)c1` (centres unmarked) [Example 100, 2-(6-Methylpyrazin-2-yl)-5-{[5-methyl-2-(2H-1,2,3-triazol-2 yl)phenyl]carbonyl}octahydropyrrolo[3,4-c]pyrrole] the figure was 0.238 µM.
For the compound `Cc1cnc(C)c(N2CC3CN(C(=O)c4c(F)cccc4-n4nccn4)CC3C2)n1` (centres unmarked) [Example 101, 2-(3,6-Dimethylpyrazin-2-yl)-5-{[2-fluoro-6-(2H-1,2,3-triazol-2-yl)phenyl]carbonyl}octahydropyrrolo[3,4-c]pyrrole], the Ki was 0.048 µM.
With `Cc1ccc(-c2ncccn2)c(C(=O)N2CC3CN(c4nc(C)cc(C)n4)CC3C2)c1` (centres unmarked) [Example 102, 2-(4,6-Dimethylpyrimidin-2-yl)-5-[(5-methyl-2-pyrimidin-2-ylphenyl)carbonyl]octahydropyrrolo[3,4-c]pyrrole], the Ki was determined as 0.017 µM.
On to `Cc1ccc(-c2ncccn2)c(C(=O)N2CC3CN(c4nc(C)cnc4C)CC3C2)c1` (centres unmarked) [Example 103, 2-(3,6-Dimethylpyrazin-2-yl)-5-[(5-methyl-2-pyrimidin-2-ylphenyl)carbonyl]octahydropyrrolo[3,4-c]pyrrole], for which the Ki is 0.038 µM.
With `Cc1cnc(C)c(N2CC3CN(C(=O)c4ccc(F)cc4-n4nccn4)CC3C2)n1` (centres unmarked) [Example 104, 2-(3,6-Dimethylpyrazin-2-yl)-5-{[4-fluoro-2-(2H-1,2,3-triazol-2-yl)phenyl]carbonyl}octahydropyrrolo[3,4-c]pyrrole] the figure was 0.042 µM; with `CN(C)c1nc(N2CC3CN(C(=O)c4c(F)cccc4-n4nccn4)CC3C2)cc(C(F)(F)F)n1` (centres unmarked) [Example 106, 4-[5-{[2-Fluoro-6-(2H-1,2,3-triazol-2-yl)phenyl]carbonyl}hexahydropyrrolo[3,4-c]pyrrol-2(1H)-yl]-N,N-dimethyl-6-(trifluoromethyl)pyrimidin-2-amine], 0.026 µM; with `Cc1ccc(-c2ncccn2)c(C(=O)N2CC3CN(c4cc(C(F)(F)F)nc(N(C)C)n4)CC3C2)c1` (centres unmarked) [Example 108, N,N-Dimethyl-4-{5-[(5-methyl-2-pyrimidin-2-ylphenyl)carbonyl]hexahydropyrrolo[3,4-c]pyrrol-2(1H)-yl}-6-(trifluoromethyl)pyrimidin-2-amine], 0.057 µM.
With `CN(C)c1nc(N2CC3CN(C(=O)c4cc(F)ccc4-c4ncccn4)CC3C2)cc(C(F)(F)F)n1` (centres unmarked) [Example 109, 4-{5-[(5-Fluoro-2-pyrimidin-2-ylphenyl)carbonyl]hexahydropyrrolo[3,4-c]pyrrol-2(1H)-yl}-N,N-dimethyl-6-(trifluoromethyl)pyrimidin-2-amine] the figure was 0.046 µM; with `CN(C)c1nc(N2CC3CN(C(=O)c4cc(F)ccc4-n4nccn4)CC3C2)cc(C(F)(F)F)n1` (centres unmarked) [Example 110, 4-[5-{[5-Fluoro-2-(2H-1,2,3-triazol-2-yl)phenyl]carbonyl}hexahydropyrrolo[3,4-c]pyrrol-2(1H)-yl]-N,N-dimethyl-6-(trifluoromethyl)pyrimidin-2-amine], 0.052 µM.
For `CN(C)c1nc(N2CC3CN(C(=O)c4ccc(F)cc4-n4nccn4)CC3C2)cc(C(F)(F)F)n1` (centres unmarked) [Example 111, [5-(2-Dimethylamino-6-trifluoromethyl-pyrimidin-4-yl)-hexahydro-pyrrolo[3,4-c]pyrrol-2-yl]-(4-fluoro-2-[1,2,3]triazol-2-yl-phenyl)-methanone] the value was 0.028 µM.
